Data on one compound can be found in patent publication US8575107B2, “Clusterin derived peptide” (Compugen Ltd., priority 2008, dated 2013).

Where a SMILES comes first, the peptide text is derived from it.

One test has as its system SK-MEL melanoma cells. Briefly: MTT assay, growth of SK-MEL cells treated with CGEN-CL1. The format is cell-based. As to the method:
CGEN-CL1 as synthesized in Example 1 was analyzed for its ability to induce growth arrest in various cancer cell lines, such as: breast cancer cell line MCF-7 (Adenocarcinoma, Breast, HTB-22, ATCC), PC3 (Adenocarcinoma, Prostate, CRL-1435, ATCC), A549 (carcinoma, Lung, CCL-185, ATCC), HT-29 (Colorectal Adenocarcinoma, Colon, HTB-38, ATCC) and SK-mel 5 (Melanoma, Skin, HTB70, ATCC).
SK-MEL 5 cells were seeded at 10,000 cells per well in 150 μl of media (DMEM medium+5% FBS) in a 96 well plate.
CGEN-CL1 (1 mg dissolved in 2500 of Sodium bi-carbonate to a stock concentration of 4 mg/ml) was added to the wells in 500 of medium (final volume of 2000) as detailed in Table 2. The relative growth was normalized to controls where CGEN-CL1 was not added to wells.
(§1) 20 μl of MTT (3-(4,5-Dimethyl-2-thiazolyl)-2,5-diphenyl-2H-tetrazolium bromide) solution (Sigma Cat#M5655, lot#085k5322, 1 gr was dissolved in 200 ml H2O and filtered, giving a final concentration of 5 mg/ml) was added to each well and incubated for 4 hours at 37° C. after which the medium was vacuumed and 100 μl of DMSO was added to each well. Absorbance was measured in an ELISA reader at 492 nm.
(In general: Tetrazolium dyes change colour on reduction, which living cells bring about.)

The next test concerns PC3 cells. Description: Cell cycle analysis by propidium iodide staining (FACS) in PC3 cells. The format is cell-based. To be noted: 300 nM or 1 μM CGEN-CL1, PI staining. As to the method:
(§2) Apoptosis was analyzed either by cell cycle analysis or by PARP cleavage estimation. The amount of cleaved PARP is proportional to the amount of cells undergoing apoptosis (see for example Boulares A. H., et al., 1999, JBC 274:22932-22940).
Cell Cycle Analysis was carried out by Propidium Iodide (PI) Staining. The cells were trypsinized and suspended in DMEM medium+10% FCS. Following centrifugation (1000 rpm, 5 min) the cell pellet was suspended in PBS (1 ml). Fixation with EtOH was performed as follows: cell suspension was transferred into 2.5 ml absolute EtOH (final concentration approx. 70%) by pipetting or by vortexing the suspension at half speed while adding the EtOH) to prevent clustering of cells during the fixation. EtOH fixated cells were incubated on ice for 15 min (or overnight at −20° C.).
Propidium Iodide (PI) staining of the cells was carried out as follows: the cells were pelleted at 1500 rpm for 5 min and then suspended in 500 μl PI-solution (in PBS: 50 μg/ml PI from 50× stock solution (2.5 mg/ml); 0.1 mg/ml RNase A; 0.05% Triton X-100), following incubation for 40 min at 37° C. Then 3 ml of PBS were added, and the cells were pelleted at 1500 rpm, 5 min. The cell pellet was suspended in 500 μl PBS for flow analysis. The flow analysis was carried out using the following approximate settings (on FACSort): FL1: 570 V log; FL2: 470 V linear.

For test [1], the system named is cleaved PARP in PC3 cells. Briefly: Detection of cleaved PARP by Western blot in PC3 cells. The format is cell-based. As to the method:
as §2
FIG. 3 presents results of detection of cleaved PARP in PC3 cells treated with CGEN-CL1 combined with or without Paclitaxel. PC3 cells were treated with CGEN-CL1 (SEQ ID NO:1), alone or in combination with Paclitaxel, for 48, 72 and 96 hours. Cleaved PARP was detected in cell lysates by Western blot analysis. […] Elevation of the amount of cleaved PARP indicates an increase in apoptotic cells.
(In general: A western blot detects proteins with antibodies after separation by electrophoresis.)

Test [2] has as its system lung carcinoma cell line A549. Description: MTT assay, CGEN-CL1 and/or paclitaxel on A549 cells. The format is cell-based, human. As to the method: as §1
A549, PC3 and MCF7 cells were seeded at 6000, 8000 and 10,000 cells per well respectively in 150 μl of media (DMEM medium+5% FBS) in 96 well plates.
Paclitaxel (Sigma T7402, Lot. 036k1217, Mw 853.9, 5 mg dissolved in 585 μl DMSO to a stock concentration of 10 mM, stored at −20° C.) and/or CGEN-CL1 (1 mg dissolved in 250 μl of sodium bi-carbonate to a stock concentration of 4 mg/ml) were added to the wells in 25 μl of medium (final volume of 200 μl) as detailed in Table 3. The relative growth was normalized to controls where neither paclitaxel nor CGEN-CL1 was added to wells.
An MTT assay was performed as described above in Example 2.

Test [3] concerns the target T1, recombinant human clusterin (Homo sapiens, UniProt P10909).
T1 construct: purchased Biovendor RD172034100
Description: BIAcore surface plasmon resonance binding of CGEN-CL1 to clusterin. The settings on record: SPR, 312-5000 nM CGEN-CL1, immobilized clusterin. The source says:
The capability of CGEN-CL1 to specifically bind to recombinant Clusterin protein was investigated using the BIACORE technology, measuring protein-protein interaction and binding affinity. The technology is based on surface plasmon resonance (SPR), an optical phenomenon that enables detection of unlabeled interactants in real time. The SPR-based biosensors can be used in determination of active concentration, screening and characterization in terms of both affinity and kinetics.
Peptide-protein interaction was analyzed using surface plasmon resonance. Analysis of the interaction between CGEN-CL1 [SEQ ID NO:1] and recombinant human clusterin (Biovendor, Modrice, Czech republic cat no: RD172034100) was conducted using the BIAcore biosensor (Pharmacia Biosensor, Uppsala, Sweden). Clusterin was immobilized directly to a CM5 sensor chip (2000 resonance units (RU)). Solution containing five different concentrations of CGEN-CL1 [SEQ ID NO:1] (312, 625, 1250, 2500 and 5000 nM) was injected into the sample chamber of the BIACORE device and the interaction was monitored for 5 minutes using surface plasmon resonance.
As a background, the solutions were also injected onto an empty flow cell with no immobilized ligand and the binding levels achieved were subtracted. Data were analyzed using BIAevaluation software.
A general note: In SPR one partner is held on a chip, and binding of the other changes the refractive index at the surface.

For test [4], the system named is breast cancer cell line MCF-7.
Description: MCF7 cells were seeded at 10,000 cells per well in 150 μl of media (DMEM medium+5% FBS) in a 96 well plate.
Test [5] concerns A549 human non-small cell lung cancer cells.
Description: A549 cells were seeded at 6000 cells per well in 150 μl of media (DMEM medium+5% FBS) in a 96 well plate.

T1 sequence (P10909 23-449): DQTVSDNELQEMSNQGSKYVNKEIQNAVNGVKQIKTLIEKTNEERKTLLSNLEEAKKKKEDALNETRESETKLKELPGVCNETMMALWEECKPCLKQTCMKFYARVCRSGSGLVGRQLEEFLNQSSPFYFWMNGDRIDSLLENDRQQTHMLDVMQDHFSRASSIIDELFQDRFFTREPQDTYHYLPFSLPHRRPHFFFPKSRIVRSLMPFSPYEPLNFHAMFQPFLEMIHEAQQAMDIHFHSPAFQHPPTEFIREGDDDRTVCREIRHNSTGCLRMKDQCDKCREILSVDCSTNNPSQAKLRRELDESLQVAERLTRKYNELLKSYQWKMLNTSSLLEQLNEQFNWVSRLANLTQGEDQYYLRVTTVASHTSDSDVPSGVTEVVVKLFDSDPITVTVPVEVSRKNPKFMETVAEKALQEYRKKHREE

For orientation: EC50 means the concentration giving half of the maximal effect. A high value points to a less potent agent. On to `CC[C@H](C)[C@H](NC(=O)[C@H](CCCNC(=N)N)NC(=O)[C@H](CC(=O)O)NC(=O)CNC(=O)[C@H](CC(N)=O)NC(=O)[C@H](CCSC)NC(=O)[C@H](Cc1c[nH]c2ccccc12)NC(=O)[C@H](Cc1ccccc1)NC(=O)[C@H](Cc1ccc(O)cc1)NC(=O)[C@H](Cc1ccccc1)NC(C)=O)C(=O)N[C@@H](CC(=O)O)C(=O)N[C@@H](CO)C(=O)N[C@@H](CC(C)C)C(=O)N[C@@H](CC(C)C)C(=O)N[C@@H](CCC(=O)O)C(=O)N[C@@H](CC(N)=O)C(=O)N[C@@H](CC(=O)O)C(=O)N[C@@H](CCCNC(=N)N)C(=O)N[C@@H](CCC(N)=O)C(=O)N[C@@H](CCC(N)=O)C(=O)N[C@H](C(N)=O)[C@@H](C)O` [CGEN-CL1] (Ac-FYFWMNGDRIDSLLENDRQQT-NH2), for which the “growth inhibition as revealed by cellular viability” value with SK-MEL melanoma cells is recorded as “evoked growth inhibition”. In the test with PC3 cells, the “percentage of apoptotic cells” value is “increased the percentage of apoptotic cells”. In addition, in the test with PC3 cells, the “percentage of cells in cell cycle phases” value was “increased the percentage of cells in cell cycle phases G0/G1 and G2/M”. Moreover, the “amount of cleaved PARP” value is on record as “dramatically enhanced the amount of cleaved PARP” in test [1] (PC3 cells treated with Paclitaxel plus CGEN-CL1, 48 hours); “caused an enhancement in the amount of cleaved PARP” in test [1] (PC3 cells, CGEN-CL1 alone, 48 hours); “significant increase in cleaved PARP” in test [1] (PC3 cells, CGEN-CL1 alone, 72 hours, administration at time zero and after 48 hours). The “CGEN-CL1 concentration that sensitizes cells to sub-minimal concentrations of paclitaxel (as little as)” value in test [2] is listed as 1 nM. In addition, in test [2] (CGEN-CL1 + paclitaxel), the “maximal effect (inhibition) in combination with paclitaxel” value was 73%. Further, the “maximal effect (inhibition) alone” value in test [2] (single agent) is recorded as 48%. The “binding to parent protein clusterin” value in test [3] is “binds to its parent protein clusterin in a dose dependent manner”. Moreover, the EC50 in test [4] was determined as 0.056 µM; in test [5], 0.00095 µM. In addition, the “concentration achieving maximal growth inhibition” value in test [4] (MCF-7 breast cancer cells, MTT) is “approximately 900 nM”. Further, the “concentration with a growth inhibiting effect (as little as)” value in test [4] (MCF-7 breast cancer cells, MTT) was 50 nM.
